Measurements taken from patent US20230165812A1, “NOCICEPTOR NEURONS CONTROL CANCER IMMUNOSURVEILLANCE” (priority 2020, published 2023).
“Also recorded” adds a separate entry of the source. Where two headings read alike, the source gives them in different places.

Experiments:
[1] = test system: cytotoxic CD8+ T-cells co-cultured with DRG neurons; experiment: DRG neuron / cytotoxic CD8+ T-cell co-culture; format: cell-based, mice; conditions: for INFγ+ CD8+ T-cells in co-culture with DRG neurons / TNFα+ CD8+ T-cells in co-culture with DRG neurons / proportion of PD1+Lag3+Tim3+ CD8+ T-cells in co-culture with DRG neurons: neuron stimulation, 48 h co-culture
Protocol: Naïve DRG neurons (1×10^4) were seeded in T cell media (supplemented with 0.05 ng/μL NGF (Life Technologies, #13257-019), 0.002 ng/μL GDNF (Peprotech, #450-51-10), and co-cultured with Tc1 CD8 T cells (1×10^5) in presence of IL-2 (575408). In some instances, co-cultures were stimulated with either of capsaicin (300 nM, twice/day) or KCl (40 mM). After 48 h, the cells were collected by centrifugation (5 min at 1300 rpm), stained and immunophenotyped by flow cytometry.

[2] = test system: tumor-infiltrating CD8+ and CD4+ T-cells; format: in vivo, mice; conditions: for reduction of the proportion of PD1+Lag3+Tim3+ CD8+ T-cells: intra-tumoral, QX-314 0.3% daily i.d.
B16F10 [3] = format: in vivo, mice; conditions: for reduction of B16F10 melanoma growth compared with vehicle / reduction of tumor weight compared with vehicle: B16F10-bearing mice; for reduction of B16F10 melanoma growth compared with vehicle: QX-314 0.3% daily i.d. surrounding the tumor, BIBN4096 systemically once every two days (5 mg/kg i.p.); for reduction of tumor weight compared with vehicle: QX-314 0.3% daily i.d., BIBN4096 5 mg/kg i.p.
B16F10 [4] = test system: B16F10; design: species or system mice; conditions: mouse, in vivo
[5] = test system: tumor-infiltrating CD8 and CD4 T cells; format: in vivo, mice
B16F10 cells = format: cell-based, mouse; conditions: BIBN4096 1-4 μM
CGRP receptor = CGRP receptor (Mus musculus, UniProt Q9R1W5+Q9WTJ5); conditions: in vivo; cited from earlier work
[6] = test system: cytotoxic CD8+ T-cells co-cultured with DRG neurons; experiment: DRG neuron / cytotoxic CD8+ T-cell co-culture; format: cell-based, mice; conditions: capsaicin without neurons
CGRP = test system: CGRP; design: species or system mice; conditions: capsaicin 1 μM; 3 h
B16F10 [7] = format: in vivo, mice

CGRP receptor, sequence (Q9R1W5 25-463): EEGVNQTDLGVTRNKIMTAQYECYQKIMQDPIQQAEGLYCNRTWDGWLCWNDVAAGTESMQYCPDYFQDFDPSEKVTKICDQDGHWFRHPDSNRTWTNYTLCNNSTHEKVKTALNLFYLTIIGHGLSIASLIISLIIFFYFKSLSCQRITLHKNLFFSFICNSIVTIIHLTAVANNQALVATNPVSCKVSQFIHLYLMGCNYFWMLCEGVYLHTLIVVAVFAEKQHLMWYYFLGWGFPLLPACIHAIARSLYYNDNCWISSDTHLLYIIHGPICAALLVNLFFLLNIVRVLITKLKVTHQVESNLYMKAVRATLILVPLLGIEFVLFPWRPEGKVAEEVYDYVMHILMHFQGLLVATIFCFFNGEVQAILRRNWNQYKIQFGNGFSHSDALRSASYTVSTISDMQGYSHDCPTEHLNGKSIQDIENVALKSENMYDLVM
CGRP receptor, sequence (Q9WTJ5 27-148): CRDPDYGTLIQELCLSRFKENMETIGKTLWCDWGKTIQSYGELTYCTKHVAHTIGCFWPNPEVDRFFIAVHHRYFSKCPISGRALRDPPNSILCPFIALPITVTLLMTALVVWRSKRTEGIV

[Cl-].[K+] [KCl, potassium chloride]
INFγ+ CD8+ T-cells in co-culture with DRG neurons [1]: decreased | TNFα+ CD8+ T-cells in co-culture with DRG neurons [1]: decreased | proportion of PD1+Lag3+Tim3+ CD8+ T-cells in co-culture with DRG neurons [1]: increased

NCCCC[C@H](NC(=O)[C@@H](Cc1cc(Br)c(O)c(Br)c1)NC(=O)N1CCC(N2Cc3ccccc3NC2=O)CC1)C(=O)N1CCN(c2ccncc2)CC1 [BIBN4096]
increase of intra-tumor number of INFγ+ CD8+ T-cells ([2]; BIBN4096 5 mg/kg i.p.): ~3 fold | increase of intra-tumor number of total CD8+ T-cells ([2]; BIBN4096 5 mg/kg i.p.): ~3 fold | intra-tumoral number of Granzyme B+ CD4+ T-cells ([2]; BIBN4096 5 mg/kg i.p.): increased | intra-tumoral number of INFγ+ CD4+ T-cells ([2]; BIBN4096 5 mg/kg i.p.): increased | intra-tumoral number of TNFα+ CD4+ T-cells ([2]; BIBN4096 5 mg/kg i.p.): increased | intra-tumoral proportion of PD1+ CD4+ T-cells ([2]; BIBN4096 5 mg/kg i.p.): decreased | intra-tumoral number of Granzyme B+ CD8+ T-cells ([2]; Example 1 dosing): increased | intra-tumoral number of INFγ+ CD8+ T-cells ([2]; Example 1 dosing): increased | intra-tumoral number of TNFα+ CD8+ T-cells ([2]; Example 1 dosing): increased | intra-tumoral number of total CD8+ T-cells ([2]; Example 1 dosing): increased | reduction of the proportion of PD1+Lag3+Tim3+ CD8+ T-cells ([2]; BIBN4096 5 mg/kg i.p.): ~2.5 fold | intra-tumoral total CD4+ T-cells counts ([2]; mouse, in vivo): increased | number/proportion of intra-tumor PD1+Lag3+Tim3+ CD8+ T-cells ([2]; mouse, in vivo, ip, 5 mg/kg): decreased | reduction of B16F10 melanoma growth compared with vehicle (B16F10 [3]): ~1.5 fold | reduction of tumor weight compared with vehicle (B16F10 [3]): ~1.9 fold | B16F10 tumor growth (B16F10 [3]; mouse, in vivo, ip, 5 mg/kg): decreased | B16F10 tumor volume (B16F10 [3]; mouse, in vivo, ip, 5 mg/kg): decreased | B16F10 tumor weight (B16F10 [3]; mouse, in vivo, ip, 5 mg/kg): decreased | IL2+ cultured cytotoxic CD8+ T-cells (cytotoxic CD8+ T-cells): do not impact | INFγ+ cultured cytotoxic CD8+ T-cells (cytotoxic CD8+ T-cells): do not impact | TNFα+ cultured cytotoxic CD8+ T-cells (cytotoxic CD8+ T-cells): do not impact | proportion of PD1+Lag3+Tim3+ cultured cytotoxic CD8+ T-cells (cytotoxic CD8+ T-cells): do not impact | survival of cultured cytotoxic CD8+ T-cells (cytotoxic CD8+ T-cells): do not impact | effects of αCD3/αCD28 stimulation on CD8+ T-cells (cytotoxic CD8+ T-cells; BIBN4096 1-4 μM): do not prevent | B16F10 tumor growth (B16F10 [4]): reduced; also recorded: decreased | B16F10 tumor volume (B16F10 [4]): reduced | B16F10 tumor weight (B16F10 [4]): reduced | intra-tumor PD1+ CD8 T cells ([5]; BIBN 5 mg/kg): decreased | tumor infiltration of PD1+ CD4 T cells ([5]; BIBN 5 mg/kg i.d.): decreased | infiltration of INFγ+ CD8 T cells ([5]; Example 2 dosing): increasing; also recorded: enhanced | total number of intra-tumoral CD4 T cells ([5]; Example 2 dosing): enhanced; also recorded: increased | tumor infiltration of INFγ+ CD4 T cells ([5]; Example 2 dosing): increased | tumor infiltration of TNFα+ CD4 T cells ([5]; Example 2 dosing): decreased | tumor infiltration of TNFα+ CD8 T cells ([5]; Example 2 dosing): increasing; also recorded: increased | tumor infiltration of Granzyme B+ CD4 T cells ([5]; mouse, in vivo): increased | tumor infiltration of Granzyme B+ CD8 T cells ([5]; mouse, in vivo): increasing; also recorded: increased | cultured B16F10 survival (B16F10 cells): no impact | host anti-bacterial activity during microbe infection (CGRP receptor): rescues

COc1cc(CNC(=O)CCCC/C=C/C(C)C)ccc1O [capsaicin]
impact on CD8+ T-cells in the absence of neurons [6]: no measurable impact | CGRP levels in B16F10 tumor surrounding skin explant (CGRP): further enhanced | IL2+ CD8+ T-cells in co-culture with DRG neurons ([1]; capsaicin-challenge): decreased | proportion of PD1+ T cells in co-culture with DRG neurons ([1]; capsaicin-challenge): increases | INFγ+ CD8+ T-cells in co-culture with DRG neurons [1]: reduced; also recorded: decreased | TNFα+ CD8+ T-cells in co-culture with DRG neurons [1]: decreased; also recorded: reduced | proportion of PD1+Lag3+Tim3+ CD8+ T-cells in co-culture with DRG neurons [1]: increased | INFγ+ CD8+ T-cells in co-culture with DRG neurons ([1]; listed as Capsaicin): decreased | TNFα+ CD8+ T-cells in co-culture with DRG neurons ([1]; listed as Capsaicin): decreased

CC[N+](CC)(CC)CC(=O)Nc1c(C)cccc1C [QX-314]
reduction of the proportion of PD1+Lag3+Tim3+ CD8+ T-cells ([2]; BIBN4096 5 mg/kg i.p.): ~15 fold | reduction of B16F10 melanoma growth compared with vehicle (B16F10 [3]): ~3.3 fold | reduction of tumor weight compared with vehicle (B16F10 [3]): ~5.2 fold | IL2+ cultured cytotoxic CD8+ T-cells (cytotoxic CD8+ T-cells): do not impact | INFγ+ cultured cytotoxic CD8+ T-cells (cytotoxic CD8+ T-cells): do not impact | TNFα+ cultured cytotoxic CD8+ T-cells (cytotoxic CD8+ T-cells): do not impact | proportion of PD1+Lag3+Tim3+ cultured cytotoxic CD8+ T-cells (cytotoxic CD8+ T-cells): do not impact | survival of cultured cytotoxic CD8+ T-cells (cytotoxic CD8+ T-cells): do not impact | rate at which vehicle exposed mice succumb relative to treated mice (B16F10 [7]; B16F10-bearing mice, p≤0.0001): 2.7 fold | hazard ratio (survival) (B16F10 [7]; mouse, in vivo): 0.37
